“Also recorded” adds a separate entry of the source.
How the values were obtained:
[1] = tested on: neutrophil adhesion to TNFα-activated endothelium; test: Neutrophil adhesion assay on HUVEC monolayer; type: cell-based, human
Protocol: (§1) A, Chemotaxis assay using neutrophils pretreated for 20 min at room temperature with 30 μM PD98059 or DMSO. Chemotaxis was stimulated by the presence of 10 nM fMLP, or 1 nM IL-8 in the lower chamber; medium alone served as a control (nil). The data represent one of three experiments, each performed in triplicate. ANOVA looking for an effect of PD98059 compared to DMSO on chemotaxis gave p=0.359. B, Confluent HUVEC monolayers were stimulated with TNFα for 4 h, with PD98059 or DMSO added in the final 30 min. The extent of neutrophil adhesion to the endothelium was determined using a standard adhesion assay. The data is presented as the percentage of neutrophil remaining adherent relative to that added (% adhesion). The results represent one of three experiments, each performed in triplicate. (p=0.238, t-test comparing DMSO+TNF with PD+TNF).
Adhesion assays were performed as previously described (Gamble, J. R., Y. Khew-Goodall, and M. A. Vadas. 1993. J Immunol. 150:4494-4503) with the exception that neutrophils were used. […] After washing the cells were stained with Rose Bengal and total numbers of adherent neutrophils determined by densitometry. The number of adherent neutrophils was computed from a standard curve and expressed as a percentage of the neutrophils added. […]

[2] = tested on: neutrophil chemotaxis; test: Neutrophil chemotaxis assay (Transwells, no HUVEC monolayer); type: cell-based, human; conditions: 30 μM PD98059 vs DMSO
Protocol: as §1
Chemotaxis assays were performed using Transwells essentially as in the transmigration assay except that the HUVEC monolayer was omitted. In addition, instead of pre-coating the upper chamber with fibronectin, the lower chamber was pre-coated with gelatin to prevent adhesion of neutrophils. […] Neutrophils that had migrated through the filters after 1 hour incubation at 37° C. were counted. Counts are expressed as a percentage of the total number of cells added. […]

[3] = tested on: neutrophil transmigration across a confluent monolayer of cultured human umbilical vein endothelial cells (HUVEC); test: Neutrophil transmigration assay across HUVEC monolayer on Transwells; type: cell-based
Protocol: FIG. 1 is a graphical representation of inhibitors that act on MEK inhibit neutrophil transmigration across endothelium. A, Confluent HUVEC monolayers plated (5×10^4 cells/well) on Transwells were either unstimulated or activated with TNFα (4 ng/ml) for 4 hours. Thirty min prior to the assay some monolayers were treated with PD98059 (45 μM) or DMSO control. Neutrophils (5×10^5 cells/well) were added with either PD98059 or DMSO. Transmigration was assayed across TNFα-activated endothelium (TNF) and unstimulated endothelium with (fMLP) or without (Nil) a gradient of 10 nM fMLP. The assays were carried out in triplicate and 1 representative of 5 experiments shown. An ANOVA was performed looking for an effect of PD98059 compared to DMSO on transmigration: in this experiment p<0.0001 and in the overall series p<0.0001. B, Endothelial monolayers were treated as in A, but the concentration of PD98059 was varied as indicated. The data are presented as percentage of transmigration relative to that across unstimulated endothelium. One representative experiment of 7, each performed in triplicate, is shown. […] C, Endothelial cells on Transwells were left unstimulated or activated with TNFα as in A. Using the standard protocol, U0126 or its solvent, DMSO, were added to the monolayers 30 min prior to the experiment, and then added with the neutrophils. The results from one of two experiments, each performed in triplicate, is shown.
This was performed as previously described using Transwells (6.5 mm diameter, […] pore size, Costar, Cambridge, Mass.) on 24 well culture trays (Smith et al., 1991, supra). Briefly, 5×10^4 HUVEC (between passages 2 and 5) were seeded in the upper chamber of each Transwell pre-coated with fibronectin (50 μg/mL for 30 minutes) and the cells were grown at 37° C. in 5% CO2 supplemented air to form a confluent monolayer. Neutrophils were added at 5×10^5 cells/well to the top chamber and where indicated chemoattractant was added to the lower chamber. The neutrophils were incubated at 37° C. for 1 h after which the number that had transmigrated into the lower chamber were collected and counted. Transmigration is expressed as a percentage of neutrophils added.
Neutrophils were counted using one of two methods. Neutrophils retrieved from the lower compartment were either counted directly using a Coulter counter (Model ZF, Coulter, Herts, UK) or using an indirect colourimetric assay based on the conversion of a tetrazolium salt (MTT) to a formazan. Briefly, MTT (0.2 mg/ml, Sigma, St. Louis, […].) was added to the lower chamber and incubated for 4 hours at 37° C. The neutrophils were pelleted by centrifugation, the pellets resuspended in 200 μl acid isopropanol for an hour and the absorbance at 550 nm determined. A standard curve was constructed by serial dilution of the neutrophil preparation and the percentage of neutrophils transmigrating was calculated from this. The two methods used produced results of good fit (least squares fit regression analysis, >95% confidence) (data not shown).
To identify signalling pathways in the endothelium that are essential for neutrophil transmigration, a screen for their effects on transmigration was carried out using pharmacological inhibitors of various signalling pathways (data not shown). The studies were performed using an in vitro model of neutrophil transmigration across a confluent monolayer of cultured human umbilical vein endothelial cells (HUVEC). Transmigration induced by an exogeneously added chemoattractant gradient and across TNFα-activated endothelium were both examined. […] In general, transmigration across TNFα-activated endothelium was inhibited to a greater extent than transmigration across a gradient of fMLP, with 70-80% inhibition of transmigration across TNFα-activated endothelium compared to only 40-50% inhibition of transmigration across an fMLP gradient. The inhibitory effects of PD98059 were also confirmed using a second MEK inhibitor, U0126 (FIG. 1C).

[4] = tested on: endothelial ERK (HUVEC); test: ERK activation assay (Western blot with phospho-ERK Ab); type: cell-based, human; conditions: for endothelial ERK activation by direct treatment of endothelial monolayer: HUVEC treated 15 min, no neutrophils, anti-phospho-ERK Western blot
Protocol: A, Endothelial cells treated with 0.4 ng/ml TNFα (TNF), 30 ng/ml interleukin-4 (IL-4), 20 ng/ml oncostatin-M (OsM), 100 ng/ml PMA, or medium alone (Nil) for 15 minutes were assayed for Erk activation. Western blots shown were carried out using an anti-phospho-Erk Ab to detect activated Erk. Equal amounts of protein were loaded onto each lane. B, HUVEC were activated with TNFα for 4 hours or left unstimulated. After washing, either medium containing IL-8 (−) or neutrophils pre-treated with 1 nM IL-8 (+) were added at a 10:1 ratio of neutrophils to HUVEC and Erk activation assayed after 15 min at 37° C. Western blots shown were carried out using antibodies to phospho-Erk (upper panel) or reprobed with an anti-Erk polyclonal antibody after membranes were stripped (lower panel).
A, Neutrophils, untreated or incubated with a β2 integrin functional blocking antibody, TS1/18 (50 μg/ml), for 20 min at room temperature were added to HUVEC in the presence of 1 nM fMLP for 15 min. HUVEC monolayers were then analysed for Erk activation by Western blotting with an anti-phospho-Erk Ab. B, Neutrophils, untreated or treated with the TS1/18 Ab as in A, were added to 96-well tissue culture dishes in the presence or absence of 1 nM fMLP and neutrophil adhesion was determined. The data is presented as the percentage of neutrophil remaining adherent relative to that added (% adhesion). By ANOVA comparing +/−TS1/18, p=0.0002, n=3.
Resting HUVEC monolayers incubated with medium (nil), neutrophils (N) or neutrophil conditioned medium (CM), were analysed for Erk activation by Western blotting with an anti-phospho-Erk Ab. A, Neutrophils were stimulated for 15 minutes with 1 nM fMLP and then divided into two aliquots. One aliquot was centrifuged and the top 2/3 taken, carefully avoiding the cellular pellet, and added as conditioned medium (CM). The other aliquot was resuspended and 2/3 taken and added as the equivalent amount of neutrophil preparation (N). B. Conditioned media from neutrophils treated with 1 or 100 nM fMLP (prepared as in A) were added to HUVEC either undiluted (neat) or after diluting 1 in 3 (1/3) in medium. […]
HUVEC (10^6 cells/well) were seeded in 6-well tissue culture dishes. […] Protein concentration was determined using the Bradford reagent (BioRad) and equal amounts of protein loaded onto a 7.5% SDS polyacrylamide gel. […] Total ERK present was determined by stripping the filter and re-blotting with an antibody against ERK 1/2.
We therefore investigated whether ERK activation in the endothelium may be occurring under the conditions of the transmigration assay and which parameter(s) present in the assay system were responsible for its activation. Initially, the role of the inducers, TNFα and fMLP, used in the transmigration assay were assessed. […]

[5] = tested on: endothelial ERK (HUVEC); conditions: Xia et al. 1998; cited from earlier work

Which “neutrophil adhesion to TNFα-activated endothelium in presence of inhibitor” value ([1]; HUVEC stimulated with TNFα 4 h, inhibitor in final 30 min) does the source give for `COc1cccc(-c2cc(=O)c3ccccc3o2)c1N` [PD98059] here?
Its value is “not significantly affected”.

What about the IL-8-stimulated neutrophil chemotaxis ([2]; 1 nM IL-8 in lower chamber) of the same molecule?
Its IL-8-stimulated neutrophil chemotaxis is “not significantly affected”.

What about the fMLP-stimulated neutrophil chemotaxis ([2]; 10 nM fMLP in lower chamber) of the same molecule?
Its fMLP-stimulated neutrophil chemotaxis is “not significantly affected”.

What about the “effect on neutrophil transmigration across TNFα-activated endothelium” value ([3]; TNFα-activated HUVEC) of the same molecule?
The value was “inhibit in a dose-dependent manner”.

What about the “inhibition of transmigration across TNFα-activated endothelium” value ([3]; TNFα-activated HUVEC, inhibitor added 30 min before and with neutrophils, 1 h) of the same molecule?
Its value is 70-80%.

What about the “effect on neutrophil transmigration induced by a chemoattractant (fMLP) gradient” value ([3]; unstimulated HUVEC) of the same molecule?
The value was “inhibit in a dose-dependent manner”.

And the “inhibition of transmigration across an fMLP gradient” value ([3]; unstimulated HUVEC, fMLP gradient (10 nM), 1 h)?
Its value is 40-50%.

Which “endothelial ERK activation by direct treatment of endothelial monolayer” value (from here on “endothelial ERK activation”) [4] does the source give for `CSCC[C@H](NC=O)C(=O)N[C@@H](CC(C)C)C(=O)N[C@@H](Cc1ccccc1)C(=O)O` [fMLP, N-formyl-methionyl-leucinyl-phenylalanine] here?
Its value is “did not activate endothelial ERK; also recorded: had no effect on endothelial ERK activation”.

What about the “induction of the ERK-activating factor in neutrophils” value ([4]; conditioned media of stimulated neutrophils added to HUVEC, phospho-ERK read-out) of the same molecule?
Its value is “induced the ERK-activating factor”.

Which “effect on neutrophil transmigration across TNFα-activated endothelium” value ([3]; TNFα-activated HUVEC) does the source give for `N#CC(=C(/N)Sc1ccccc1N)/C(C#N)=C(\N)Sc1ccccc1N` [U0126] here?
The value was “inhibited transmigration across TNFα-activated endothelium to a similar extent as PD 98059”.

What about the “effect on neutrophil transmigration induced by a chemoattractant (fMLP) gradient” value ([3]; unstimulated HUVEC) of the same molecule?
Its value is “showed greater potency against fMLP-driven transmigration”.

For TNFα, which “neutrophil adhesion to endothelium after treatment of the endothelium” value ([1]; TNFα treatment of HUVEC, 4 h) is on record?
Its value is “stimulated neutrophil adhesion”.

And the “endothelial ERK activation” value [4]?
The value was “marginally activated ERK”.

What about the “fold activation of ERK (earlier observations)” value [5] of the same molecule?
Its value is 1.5-2.0 fold.

B1: IL-4: interleukin-4 (protein, UniProt P05112 25-153, looked up)
Interleukin-4: HKCDITLQEIIKTLNSLTEQKTLCTELTVTDIFAASKNTTEKETFCRAATVLRQFYSHHEKDTRCLGATAQQFHRHKQLIRFLKRLDRNLWGLAGLNSCPVKEANQSTLENFLERLKTIMREKYSKCSS
With B1 as the molecule, how does the “endothelial ERK activation” value [4] read?
Its value is “marginally activated ERK”.

Reference: patent US20070116687A1, “Method of modulating cellular transmigration and agents for use therein” (Medvet Science PTY, Ltd., priority 2003, published 2007)
